Assay results taken from patent US8557763B2, “Synthetic peptides that enhance tight junction permeability” (Alba Therapeutics Corporation, priority 2007, dated 2013).
Where no end group is shown, it is not given here. [ ]: non-standard residue; d: D form. dAllylGly = C=CC[C@@H](N)C(=O)O; AllylGly = C=CC[C@H](N)C(=O)O

Legend:
CaCo2 monolayers [1] = assay: Trans Epithelial Electric Resistance (TEER) across CaCo2 monolayers; assay type: cell-based; set-up: key to Reduced TEER: + indicates an enhancement of the permeability of the tight junctions were observed; − indicates no enhancement of permeability was observed; conditions: CaCo2 monolayers
From the text: (§1) Agonists of tight junctions can be identified by their ability to enhance the flux of compounds (e.g. ions, Lucifer Yellow) through a cell monolayer that comprises tight junctions; or by their ability to reduce TEER across a cell monolayer that comprises tight junctions. Treatment of CaCo2 monolayers with peptide FCIGRL (SEQ ID NO: 1) led to a 51-fold enhancement of Lucifer Yellow permeability through CaCo2 monolayers compared to vehicle alone.
Treatment of CaCo2 monolayers with peptide FCIGRL led to a 16-fold decrease in TEER across CaCo2 monolayers compared to vehicle alone.
(§2) Tight junction agonists can be identified and tested using the following method:
(§3) Determination of TEER and Lucifer Yellow Flux
(§4) Prepare Modified Hank's Balanced Salt Solution (MHBSS) by obtaining 1 L bottle of HBSS removing 10 ml of HBSS and replacing it with 10 ml HEPES buffer pH 7.0. Adjust pH to 7.4±0.1 using concentrated NaOH (10N).
(§5) Remove CaCo-2 cells from incubator, grown on 12-well, 3.0 μM, polycarbonate Transwell® filters (Corning) and record passage#, date cells seeded and age in days.
(§6) Aspirate cell culture medium from both the apical (AP) and basolateral (BL) compartments, replacing with 0.5 ml and 1.5 ml of MHBSS, respectively. Incubate cells at 37° C. for 30 minutes.
Using the MilliCell®-ERS instrument (Millipore), measure and record the transepithelial electrical resistance (TEER) across each filter and record.
(§7) Aspirate solution from the apical compartment of each filter (n=3 per condition) and replace with 0.5 ml of control and test solutions containing Lucifer Yellow and test compound if appropriate.
(§8) Place all plates into incubator set at 37° C. (±0.2), 50 RPM (±5) for a total of 180 minutes.
At t=30, 60, 120 and 180 minutes, measure and record the transepithelial electrical resistance (TEER) across each filter using the MilliCell-ERS instrument.
(§9) Cells: CaCo-2 cells passage 40-60 grown on Transwell® plates for 21-28 days
(§10) Culture Medium: DMEM supplemented with 10% fetal bovine serum, 1% NEAA, 1% Penn/Strep
(§11) Buffers: Hank's Balanced Salt Solution (HBSS) without calcium and magnesium
(§12) Flasks: 100×20 mm Tissue culture dish Falcon.
(§13) Plates: 12 well polycarbonate Transwell® filters; 0.3 uM pore size

CaCo2 monolayers [2] = assay: Lucifer Yellow (LY) permeability assay through CaCo2 monolayers; assay type: cell-based; set-up: key to Enhanced LY permeability: + indicates an enhancement of the permeability of the tight junctions were observed; − indicates no enhancement of permeability was observed; conditions: CaCo2 monolayers, Lucifer Yellow flux
From the text: as §1, §2, §3, §4, §5, §6, §7, §8
At t=60, 120 and 180 minutes remove […] from each basolateral compartment and place it in a 96-well plate for Lucifer Yellow analysis, replace with 100 μl of MHBSS.
Make a Lucifer Yellow standard curve with the following dilutions (7500 μM, 3750 μM, 750 μM, 375 μM, 37.5 μM, 7.5 μM, 3.75 μM, 0.75 μM) and pipette 100 μL of each into a 96-well plate except for the first three standards mentioned above which require a 1:10 dilutions prior to transferring to the 96-well plate.
Harvest the remaining start solutions and what is left in each apical compartment into 1.5 ml vials. Freeze at −20° C. for future analysis.
Analyze each 96-well plate in a Tecan Spectra Fluor Plus using Magellan at 485 and 535 nm.
as §9, §10, §11, §12, §13

| Substance | Reduced TEER (CaCo2 monolayers [1]) | Enhanced LY permeability (CaCo2 monolayers [2]) |
| --- | --- | --- |
| 3 (F[AllylGly]IGR-NH2; N-terminus assumed; SMILES C=CC[C@H](NC(=O)[C@@H](N)Cc1ccccc1)C(=O)N[C@H](C(=O)NCC(=O)N[C@@H](CCCNC(=N)N)C(N)=O)[C@@H](C)CC) [compound 3] | − | − |
| 38 (F[AllylGly]YGRL-NH2; N-terminus assumed; SMILES C=CC[C@H](NC(=O)[C@@H](N)Cc1ccccc1)C(=O)N[C@@H](Cc1ccc(O)cc1)C(=O)NCC(=O)N[C@@H](CCCNC(=N)N)C(=O)N[C@@H](CC(C)C)C(N)=O) [compound 38] | + | + |
| 13 (G[AllylGly]IGRL; not fully specified; printed as Gly−AllylGly−Ile−Gly−Arg−Leu−NR2) [compound 13] | − | − |
| 85 (F[AllylGly]IGRM-NH2; N-terminus assumed; SMILES C=CC[C@H](NC(=O)[C@@H](N)Cc1ccccc1)C(=O)N[C@H](C(=O)NCC(=O)N[C@@H](CCCNC(=N)N)C(=O)N[C@@H](CCSC)C(N)=O)[C@@H](C)CC) [compound 85] | + | + |
| 49 (F[AllylGly]IFRL-NH2; N-terminus assumed; SMILES C=CC[C@H](NC(=O)[C@@H](N)Cc1ccccc1)C(=O)N[C@H](C(=O)N[C@@H](Cc1ccccc1)C(=O)N[C@@H](CCCNC(=N)N)C(=O)N[C@@H](CC(C)C)C(N)=O)[C@@H](C)CC) [compound 49] | + | + |
| 62 (F[AllylGly]IGKL-NH2; N-terminus assumed; SMILES C=CC[C@H](NC(=O)[C@@H](N)Cc1ccccc1)C(=O)N[C@H](C(=O)NCC(=O)N[C@@H](CCCCN)C(=O)N[C@@H](CC(C)C)C(N)=O)[C@@H](C)CC) [compound 62] | + | + |
| 4 (F[dAllylGly]IGR-NH2; N-terminus assumed; SMILES C=CC[C@@H](NC(=O)[C@@H](N)Cc1ccccc1)C(=O)N[C@H](C(=O)NCC(=O)N[C@@H](CCCNC(=N)N)C(N)=O)[C@@H](C)CC) [compound 4] | − | − |
| 16 (K[AllylGly]IGRL-NH2; N-terminus assumed; SMILES C=CC[C@H](NC(=O)[C@@H](N)CCCCN)C(=O)N[C@H](C(=O)NCC(=O)N[C@@H](CCCNC(=N)N)C(=O)N[C@@H](CC(C)C)C(N)=O)[C@@H](C)CC) [compound 16] | − | − |
| 11 (V[AllylGly]IGRL-NH2; N-terminus assumed; SMILES C=CC[C@H](NC(=O)[C@@H](N)C(C)C)C(=O)N[C@H](C(=O)NCC(=O)N[C@@H](CCCNC(=N)N)C(=O)N[C@@H](CC(C)C)C(N)=O)[C@@H](C)CC) [compound 11] | − | − |
| 39 (F[AllylGly]ITRL-NH2; N-terminus assumed; SMILES C=CC[C@H](NC(=O)[C@@H](N)Cc1ccccc1)C(=O)N[C@H](C(=O)N[C@H](C(=O)N[C@@H](CCCNC(=N)N)C(=O)N[C@@H](CC(C)C)C(N)=O)[C@@H](C)O)[C@@H](C)CC) [compound 39] | + | + |
| 76 (F[AllylGly]IGRF-NH2; N-terminus assumed; SMILES C=CC[C@H](NC(=O)[C@@H](N)Cc1ccccc1)C(=O)N[C@H](C(=O)NCC(=O)N[C@@H](CCCNC(=N)N)C(=O)N[C@@H](Cc1ccccc1)C(N)=O)[C@@H](C)CC) [compound 76] | + | + |
| 9 (T[AllylGly]IGRL-NH2; N-terminus assumed; SMILES C=CC[C@H](NC(=O)[C@@H](N)[C@@H](C)O)C(=O)N[C@H](C(=O)NCC(=O)N[C@@H](CCCNC(=N)N)C(=O)N[C@@H](CC(C)C)C(N)=O)[C@@H](C)CC) [compound 9] | − |  |
| 29 (F[AllylGly]GGRL-NH2; N-terminus assumed; SMILES C=CC[C@H](NC(=O)[C@@H](N)Cc1ccccc1)C(=O)NCC(=O)NCC(=O)N[C@@H](CCCNC(=N)N)C(=O)N[C@@H](CC(C)C)C(N)=O) [compound 29] | + | + |
| 52 (F[AllylGly]INRL-NH2; N-terminus assumed; SMILES C=CC[C@H](NC(=O)[C@@H](N)Cc1ccccc1)C(=O)N[C@H](C(=O)N[C@@H](CC(N)=O)C(=O)N[C@@H](CCCNC(=N)N)C(=O)N[C@@H](CC(C)C)C(N)=O)[C@@H](C)CC) [compound 52] | + | + |
| 8 (S[AllylGly]IGRL-NH2; N-terminus assumed; SMILES C=CC[C@H](NC(=O)[C@@H](N)CO)C(=O)N[C@H](C(=O)NCC(=O)N[C@@H](CCCNC(=N)N)C(=O)N[C@@H](CC(C)C)C(N)=O)[C@@H](C)CC) [compound 8] | − | − |
| 86 (F[AllylGly]IGRK-NH2; N-terminus assumed; SMILES C=CC[C@H](NC(=O)[C@@H](N)Cc1ccccc1)C(=O)N[C@H](C(=O)NCC(=O)N[C@@H](CCCNC(=N)N)C(=O)N[C@@H](CCCCN)C(N)=O)[C@@H](C)CC) [compound 86] | − | + |
| 58 (F[AllylGly]IGQL-NH2; N-terminus assumed; SMILES C=CC[C@H](NC(=O)[C@@H](N)Cc1ccccc1)C(=O)N[C@H](C(=O)NCC(=O)N[C@@H](CCC(N)=O)C(=O)N[C@@H](CC(C)C)C(N)=O)[C@@H](C)CC) [compound 58] | − | − |
| 59 (F[AllylGly]IGGL-NH2; N-terminus assumed; SMILES C=CC[C@H](NC(=O)[C@@H](N)Cc1ccccc1)C(=O)N[C@H](C(=O)NCC(=O)NCC(=O)N[C@@H](CC(C)C)C(N)=O)[C@@H](C)CC) [compound 59] | + | + |
| 54 (F[AllylGly]IVRL-NH2; N-terminus assumed; SMILES C=CC[C@H](NC(=O)[C@@H](N)Cc1ccccc1)C(=O)N[C@H](C(=O)N[C@H](C(=O)N[C@@H](CCCNC(=N)N)C(=O)N[C@@H](CC(C)C)C(N)=O)C(C)C)[C@@H](C)CC) [compound 54] | + | − |
| 68 (F[AllylGly]IGTL-NH2; N-terminus assumed; SMILES C=CC[C@H](NC(=O)[C@@H](N)Cc1ccccc1)C(=O)N[C@H](C(=O)NCC(=O)N[C@H](C(=O)N[C@@H](CC(C)C)C(N)=O)[C@@H](C)O)[C@@H](C)CC) [compound 68] | + |  |
| 14 (D[AllylGly]IGRL-NH2; N-terminus assumed; SMILES C=CC[C@H](NC(=O)[C@@H](N)CC(=O)O)C(=O)N[C@H](C(=O)NCC(=O)N[C@@H](CCCNC(=N)N)C(=O)N[C@@H](CC(C)C)C(N)=O)[C@@H](C)CC) [compound 14] | − |  |
| 60 (F[AllylGly]IGAL-NH2; N-terminus assumed; SMILES C=CC[C@H](NC(=O)[C@@H](N)Cc1ccccc1)C(=O)N[C@H](C(=O)NCC(=O)N[C@@H](C)C(=O)N[C@@H](CC(C)C)C(N)=O)[C@@H](C)CC) [compound 60] |  | + |
| 70 (F[AllylGly]IGWL-NH2; N-terminus assumed; SMILES C=CC[C@H](NC(=O)[C@@H](N)Cc1ccccc1)C(=O)N[C@H](C(=O)NCC(=O)N[C@@H](Cc1c[nH]c2ccccc12)C(=O)N[C@@H](CC(C)C)C(N)=O)[C@@H](C)CC) [compound 70] |  | + |
| 69 (F[AllylGly]IGIL-NH2; N-terminus assumed; SMILES C=CC[C@H](NC(=O)[C@@H](N)Cc1ccccc1)C(=O)N[C@H](C(=O)NCC(=O)N[C@H](C(=O)N[C@@H](CC(C)C)C(N)=O)[C@@H](C)CC)[C@@H](C)CC) [compound 69] | − |  |
| 81 (F[AllylGly]IGRT-NH2; N-terminus assumed; SMILES C=CC[C@H](NC(=O)[C@@H](N)Cc1ccccc1)C(=O)N[C@H](C(=O)NCC(=O)N[C@@H](CCCNC(=N)N)C(=O)N[C@H](C(N)=O)[C@@H](C)O)[C@@H](C)CC) [compound 81] |  | − |
